Measured values from patent publication US6071709A, “Nerve growth factor/receptor complex” (The United States of America as represented by the …, priority 1992, dated 2000).

How the values were obtained:
[1] = target: p140^prototrk (Rattus norvegicus, UniProt P35739); test: trk tyrosine phosphorylation in rtrk-3T3 cells, suramin treatment followed by NGF (in vivo and immune complex kinase assays); format: cell-based; conditions: rtrk-3T3 cells, 1 mM suramin for 2 h
Method: rtrk 3T3 cells were generated by CaPO4 mediated transfection of a rat trk cDNA into NIH-3T3 cells. […] PC12 cells or rtrk 3T3 cells (2×10^7) were labeled with ^32 P orthophosphate (1 mCi.ml in 4 ml) for 4 hr at 37° C. […] For c, rtrk 3T3 cells were treated with 1 mM suramin in Dulbecco's Modified Eagle Medium (DMEM) for 2 h or mock treated. Following extensive washing of the cells with DMEM, NGF was added for the time indicated. Cells were lysed and the lysates were immunoprecipitated with trk antibody. Immunoprecipitates were either subjected to immunoblot analysis with the phosphotyrosine (Ptyr) monoclonal antibody 4G10 (Lanes 1-3), or were analyzed in kinase assays. […] Similar amounts of trk protein were present in each lane.

[2] = system: gp145^trkB; test: gp145^trkB tyrosine phosphorylation in trkB-expressing NIH 3T3 cells (pJM8 lines), immunoprecipitation and α-Ptyr Western; format: cell-based, rat; conditions: for time to detection of trkB tyrosine phosphorylation / time to maximal levels of trkB tyrosine phosphorylation / concentration giving maximal gp145^trkB phosphorylation: pJM8-3 cells; for time to detection of trkB tyrosine phosphorylation / time to maximal levels of trkB tyrosine phosphorylation: 100 ng/ml; for concentration giving maximal gp145^trkB phosphorylation: dose response 0.1 to 250 ng/ml; for tyrosine phosphorylation of gp145^trkB: pJM8 trkB-expressing NIH 3T3 cells, 100 ng/ml factor, 5 min
Method: A 4.8 kb cDNA encompassing the coding domain of rat trkB (Middlemas et al., (1991)) was cloned into the pMEX plasmid (pJM8) downstream of the MSV promoter. NIH 3T3 cells were cotransfected with the pJM8 plasmid and a plasmid containing the neomycin phosphotransferase gene (L. F. Parada et al., Nature 312:649-651 (1984)), and G418-resistant colonies were selected. PC12 cells (Greene and Tischler, 1976) were grown in DMEM with 10% horse serum and 5% fetal calf serum. NIH 3T3 cells and the derivative cells lines were maintained in DMEM medium containing 10% calf serum. All cells were maintained in a humidified incubator at 37° C. in 5% CO2.
Approximately 10^7 cells were treated at 37° C. for 5 min with 100 ng/ml growth factors or at the concentrations and lengths of time noted in the text. NP-40 plate lysis and gp145^trkB immunoprecipitation with anti-serum 443 were performed as previously described (Kaplan et al., (1990), (1991)). The phosphotyrosine content was analyzed by Western transfer using monoclonal antibody 4G10 as previously described (Morrison et al., (1989)).
The product of the trk proto-oncogene (gp140^proto-trk) is tyrosine phosphorylated in response to NGF in PC12 cells, NGF-responsive neuroblastoma cells, heterologous fibroblasts and Xenopus oocytes (Kaplan et al., (1991); A. R. Nebreda et al., Science 252:558-560 (1991); Klein et al., (1991)). Next it was examined whether NGF elicited tyrosine phosphorylation of gp145^trkB in trkB-expressing NIH 3T3 cells. Cell line pJM8-3 was treated with high concentrations of NGF (100 ng/ml) for 5 minutes. The cells were lysed, immunoprecipitated with anti-trkB antiserum 443, transferred to nitrocellulose filters and probed with anti-phosphotyrosine (α-Ptyr) antibodies. As a negative control, untransfected NIH-3T3 cells were treated in parallel, while PC12 cells were used as a positive control for NGF responsiveness (Kaplan et al., (1991)).
BDNF and NT-3 are neurotrophic factors that display many functional and structural features that are reminiscent of NGF. The genes encoding BDNF and NT-3 have recently been cloned and used to express high levels of the biologically active factors in pure form (A. Rosenthal et al., Neuron 4:773 (1990)). It was tested whether these NGF-related neurotrophic factors would stimulate phosphorylation of the trkB glycoprotein by exposing the pJM-8 cell lines to 100 ng/ml of NGF, BDNF, or NT-3 (~4 nM) for 5 minutes. The cells were then lysed and the lysates incubated with a trkB anti-peptide antiserum (443) with or without excess peptide. After transfer to nitrocellulose filters, the trkB proteins were probed with an anti-phosphotyrosine (α-ptyr) monoclonal antibody (FIG. 10) (Kaplan et al. (1991)). […] Thus, both neurotrophic factors NT-3 and BDNF can elicit tyrosine phosphorylation of gp145^trkB in a manner similar to that observed for NGF stimulation of the trk receptor. Similar results have been obtained with NT-3 and BDNF in Rat2 cells expressing trkB.
Having detected gp145^trkB phosphorylation in response to BDNF and NT-3, it was next determined whether unrelated polypeptide growth factors were capable of eliciting a similar response. Platelet-derived growth factor (PDGF; 100 ng/ml), epidermal growth factor (EGF; 100 ng/ml), insulin (100 ng/ml), and basic fibroblast growth factor (bFGF; 100 ng/ml), were added independently to exponentially growing cultures of pJM8-3 cells.
The previous studies were done in the presence of high concentrations of neurotrophic factors. Dose response experiments were next performed to determine the range of concentrations at which phosphorylation of the trkB receptor was stimulated by NT-3 or BDNF. Cells were incubated with quantities of NT-3 or BDNF ranging from 0.1 ng/ml to 250 ng/ml and treated as described in FIG. 12. […]

[3] = target: T1, gp140^prototrk (Rattus norvegicus, UniProt P35739); test: trk tyrosine phosphorylation in PC12 cells treated with NGF (32P labelling / Ptyr immunoblot of trk immunoprecipitates); format: cell-based; conditions: 15 min at 37° C., 100 ng/ml FGF or EGF, 100 nM insulin, 1 μg/ml PMA
T1 construct: tyrosine phosphorylation in response to NGF addition to PC12 cells; endogenous in cells; host or cells: PC12 cells
Method: FIGS. 1A-C show the tyrosine phosphorylation of gp140trk in PC12 cells and trk-expressing NIH-3T3 cells treated with NGF. FIG. 1A, gp140trk immunoprecipitated from PC12 cells or trk-expressing 3T3 cells labeled with ^32 P-orthophosphate. Immunoprecipitates were prepared with rabbit anti-trk antisera 43-4 (D. Martin-Zanca et al., Mol Cell. Biol. 9:24-33 (1989)) from lysates prepared from 3T3 cells expressing the rat trk gene (trk 3T3) (lane 1) or PC12 cells treated for 5 min with 100 ng/ml NGF at 37° C. (lanes 2 and 4) or mock treated (lane 3). The immunoprecipitate shown in lane 2 was prepared in the presence of the peptide used to generate the rabbit 43-4 trk antibody (Martin-Zanca et al., (1989)). Shown in FIG. 1B is the phosphoamino acid analysis of trk proteins phosphorylated in vitro in p140trk immunoprecipitates from NGF treated PC12 cells in vivo from NGF treated (+) or untreated (-) PC12 cells, or in vivo from trk 3T3 cells. The positions of phosphoserine (S), phosphothreonine (T), and phosphotyrosine (Y) are indicated. FIG. 1C, trk proteins from trk 3T3 cells phosphorylated […]. In lanes 1-3, gp140trk immunoprecipitates were probed with P-tyr antibodies. In lanes 4-6, gp140trk proteins were phosphorylated in vitro in kinase assays. Cells were treated with suramin (lanes 2 and 5) or with 500 ng/ml NGF for 10 min following suramin treatment. The band migrating at 110 kDa is a glycosylation precursor of gp140^prototrk (Martin-Zanca et al., (1989)). The band at the bottom of the figure is IgG. Molecular weight markers in kDa are indicated.
rtrk 3T3 cells were generated by CaPO4 mediated transfection of a rat trk cDNA into NIH-3T3 cells. Rat trk cDNAs were obtained from an embryonic rat DRG cDNA library. The longest trk cDNA obtained (2.4 kbp) was missing approximately 150 bp of the coding region as compared to available mouse and human trk sequence. The missing bases plus minimal (~50 bp) 5' flanking non-coding sequences were replaced from mouse first coding exon sequences and the reconstructed gene was placed downstream of an MSV-LTR. PC12 cells or rtrk 3T3 cells (2×10^7) were labeled with ^32 P orthophosphate (1 mCi.ml in 4 ml) for 4 hr at 37° C. Cells were treated with NGF for the indicated times, washed, lysed in buffer containing 1% NP40, and the lysates immunoprecipitated with trk antibody 43-4 (D. R. Kaplan et al., Cell 61:125-133 (1990)) and electrophoresed on 7.5% SDS-PAGE gels as previously described (Kaplan et al., (1990)). For b, the phosphorylated trk bands were eluted from the gel and phosphoamino acid analysis performed as described (B. M. Sefton et al., J. Cell 24:165-174 (1981)). gp140trk protein from NGF treated PC12 cells was phosphorylated in vitro. For c, rtrk 3T3 cells were treated with 1 mM suramin in Dulbecco's Modified Eagle Medium (DMEM) for 2 h or mock treated. Following extensive washing of the cells with DMEM, NGF was added for the time indicated. Cells were lysed and the lysates were immunoprecipitated with trk antibody. Immunoprecipitates were either subjected to immunoblot analysis with the phosphotyrosine (Ptyr) monoclonal antibody 4G10 (Lanes 1-3), or were analyzed in kinase assays. (D. K. Morrison, et al. Cell 58:649-657 (1989) and Kaplan et al., (1990)). Similar amounts of trk protein were present in each lane.
FIGS. 2A-C. Time course, growth factor specificity, and dose response of trk tyrosine phosphorylation in PC12 cells. A, Time course of trk tyrosine phosphorylation. Cells (2×10^7) were treated with 50 ng/ml NGF at 37° C. B, Effects of growth and differentiation factors on trk tyrosine phosphorylation. Cells were treated with 100 ng/ml NGF, 100 ng/ml basic fibroblast growth factor (FGF) (Boehringer Mannheim Biochemicals), 100 ng/ml epidermal growth factor (EGF) (Upstate Biotechnology, Inc.), 100 nM insulin (Sigma), or 1 μg/ml phorbal 12-myristate […] (PMA) (Sigma) for 15 min. at 37° C. C, dose response of trk tyrosine phosphorylation. […]

[4] = system: trkB; test: Growth factor stimulation of trkB transfected 3T3 cells (pJM8-3), COS cell supernatants, Ptyr blot; format: cell-based; conditions: trkB-expressing 3T3 cells (pJM8-3), 100 μl/ml NT-3 COS cell supernatant, 10 minutes at 37° C.
Method: To study the expression of trkB in transfected cell lines, full length trkB cDNAs were cloned into CMV and MuLV LTR expression vectors and transfected into NIH-3T3 fibroblasts, PC 12 pheochromocytoma cells and NR18 cells (a derivative of PC12 cells). Stable G418 resident clones were picked and expanded. Assays to detect cell lines expressing trkB were performed by detergent lysis of the cells, followed by WGA-sepharose adsorption. The adsorbed material was analyzed by SDS-PAGE on 7.5% gels, transferred to nitrocellulose and probed with antisera 442, a trkB specific rabbit antisera. The Western blots contained a WGA-sepharose extract of mouse brain as a control and BIORAD prestained molecular weight standards (200, 116, 80 and 43 kDa).
To study growth factor stimulation in cells transfected with trkB, NIH 3T3 trk transfected 3T3 (pJM7-23), trkB transfected 3T3 cells (pJM8-3) and non-transfected 3T3 cells (control cells) were exposed to media or media containing 100 μl/ml of NGF-COS cell supernatant, 100 μl/ml NT-3 COS cell supernatant, 5 μl/ml human platelet extract, or 50 μl/ml human platelet extract, for 10 minutes at 37° C. The plates were rinsed, lysed, and the trk or trkB was immunoprecipitated with rabbit antisera 443 and protein A Sepharose in the presence or absence of 10 μg/ml blocking peptide. […]

T1 sequence (P35739 33-799): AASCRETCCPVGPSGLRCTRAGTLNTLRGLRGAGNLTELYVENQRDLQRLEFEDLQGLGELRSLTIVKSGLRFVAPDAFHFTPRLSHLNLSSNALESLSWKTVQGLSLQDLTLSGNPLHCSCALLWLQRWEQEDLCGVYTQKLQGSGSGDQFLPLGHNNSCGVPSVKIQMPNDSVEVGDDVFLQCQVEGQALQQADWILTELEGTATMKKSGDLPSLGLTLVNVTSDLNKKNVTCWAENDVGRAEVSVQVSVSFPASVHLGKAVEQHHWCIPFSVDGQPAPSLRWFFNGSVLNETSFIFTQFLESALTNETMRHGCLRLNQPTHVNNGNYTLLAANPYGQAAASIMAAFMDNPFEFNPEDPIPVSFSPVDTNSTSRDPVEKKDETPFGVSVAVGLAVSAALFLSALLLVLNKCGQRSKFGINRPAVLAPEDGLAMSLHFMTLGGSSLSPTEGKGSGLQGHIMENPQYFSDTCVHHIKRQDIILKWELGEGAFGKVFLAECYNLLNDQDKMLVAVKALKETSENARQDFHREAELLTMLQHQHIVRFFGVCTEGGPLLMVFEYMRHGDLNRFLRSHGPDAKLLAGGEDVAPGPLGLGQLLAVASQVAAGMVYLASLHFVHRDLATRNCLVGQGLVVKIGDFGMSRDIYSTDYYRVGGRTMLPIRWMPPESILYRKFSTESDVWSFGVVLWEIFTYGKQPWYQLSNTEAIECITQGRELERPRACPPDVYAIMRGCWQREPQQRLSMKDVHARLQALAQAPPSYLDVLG
Sequence of p140^prototrk (P35739 33-799): as above

Molecule	tyrosine phosphorylation of gp145^trkB [2]	induction of trk tyrosine phosphorylation by growth and differentiation factors [3]	further results
Cc1ccc(C(=O)Nc2ccc(S(=O)(=O)O)c3cc(S(=O)(=O)O)cc(S(=O)(=O)O)c23)cc1NC(=O)c1cccc(NC(=O)Nc2cccc(C(=O)Nc3cc(C(=O)Nc4ccc(S(=O)(=O)O)c5cc(S(=O)(=O)O)cc(S(=O)(=O)O)c45)ccc3C)c2)c1 [suramin, reference compound]	–	–	tyrosine phosphorylation of p140^prototrk in vivo and in immune complex kinase assays [1]: markedly reduced
BDNF: NGF related neurotrophic factor, brain-derived neurotrophic factor	strong phosphorylation	–	time to detection of trkB tyrosine phosphorylation [2]: one; time to maximal levels of trkB tyrosine phosphorylation [2]: ≤ 5 min; concentration giving maximal gp145^trkB phosphorylation [2]: 50 ng/mL
CCCCCCCCCCCCCC(=O)O[C@@H]1[C@@H](C)[C@@]2(O)[C@@H](C=C(CO)C[C@]3(O)C(=O)C(C)=C[C@@H]23)[C@@H]2C(C)(C)[C@]12OC(C)=O [PMA, phorbal 12-myristate 12-acetate, reference compound]	–	failed to induce	–
EGF: epidermal growth factor (Upstate Biotechnology, Inc.) [reference compound]	No tyrosine-phosphorylated gp145^trkB was detected	failed to induce	–
insulin: insulin (Sigma) [reference compound]	No tyrosine-phosphorylated gp145^trkB was detected	failed to induce	–
basic FGF: basic fibroblast growth factor (Boehringer Mannheim Biochemicals) [reference compound]	No tyrosine-phosphorylated gp145^trkB was detected	failed to induce	–
PDGF [reference compound]	No tyrosine-phosphorylated gp145^trkB was detected	–	–
NT-3: NGF related neurotrophic factor neurotrophin-3; HPLC-purified from Genentech or as COS cell supernatant (protein, UniProt P20783 139-257, looked up) Neurotrophin-3: YAEHKSHRGEYSVCDSESLWVTDKSSAIDIRGHQVTVLGEIKTGNSPVKQYFYETRCKEARPVKNGCRGIDDKHWNSQCKTSQTYVRALTSENNKLVGWRWIRIDTSCVCALSRKIGRT	strong phosphorylation	–	time to detection of trkB tyrosine phosphorylation [2]: one; time to maximal levels of trkB tyrosine phosphorylation [2]: ≤ 5 min; concentration giving maximal gp145^trkB phosphorylation [2]: 50 ng/mL; stimulation of trkB tyrosine phosphorylation [4]: stimulated
